According to patent publication US10577373B2, “TYK2 inhibitors and uses thereof” (Nimbus Lakshmi, Inc., priority 2017, dated 2020):
Where two headings read alike, the source gives them in different places.

Legend:
[1] = system: IL-12 induced STAT4 phophorylation mediated by Tyk2/JAK2 (heterodimeric complex); test: IL-12 Induced pSTAT4 in Human PBMC; assay type: cell-based; details: 1.7 ng/mL IL-12
Excerpt: The IL-12 Induced pSTAT4 assay evaluates the inhibition of IL-12 induced STAT4 phophorylation mediated by Tyk2/JAK2 (heterodimeric complex).

[2] = system: GM-CSF induced STAT5 phosphorylation mediated by the JAK2/JAK2 homdimeric complex; test: GM-CSF Induced pSTAT5 in Human PBMC; details: Homo sapiens, PBMC, 20 min
Excerpt: Human PBMC are isolated from buffy coat and are stored frozen for assays as needed.

[3] = read-out: PBMC_GMCSF_pSTAT5 IC50, human PBMC, GM-CSF 5 ng/mL for 20 minutes, pSTAT5

SMILES	IC50 [1]	IC50 [2, 3]	IC50 ([2]; read-out: PBMC_GMCSF_pSTAT5 IC50)
CNc1cc(Nc2cc(Cl)cn([C@@H]3CCCOC3)c2=O)nc2c(C(=O)NC3CC3)cnn12 [I-783]	< 0.1 µM	> 50 µM	
CNc1cc(Nc2cc(Cl)cn(C3CCN(C)CC3)c2=O)nc2c(C(=O)N[C@@H]3C[C@@H]3F)cnn12 [I-789]	< 0.1 µM	> 12.5 µM	
CNc1cc(Nc2cccn(-c3cccc(C(C)(C)O)n3)c2=O)nc2c(C(=O)NC3CCC3)cnn12 [I-156]	< 0.1 µM	> 12.5 µM	
CNc1cc(-c2cn(C(C)C)c3ncccc23)nc2c(C(=O)NC3CCC3)cnn12 [I-224]	< 0.1 µM	> 50 µM	
CNc1cc(Nc2cc(Cl)cn(-c3cc(C)n(C)n3)c2=O)nc2c(C(=O)NC3CC3)cnn12 [I-314]	< 0.1 µM	> 2.5 µM	
CNc1cc(Nc2cccn(C3CCCN(CCF)C3)c2=O)nc2c(C(=O)N[C@@H]3C[C@@H]3F)cnn12 (stereo partly shown) [I-849]	0.1 to 0.5 µM	> 50 µM	
CNc1cc(Nc2cc(F)cnc2OC)nc2c(C(=O)NCC(C)(C)CO)cnn12 [I-283]	< 0.1 µM	> 50 µM	
CNc1cc(-c2cn(CCN3CCOCC3)c3ncccc23)nc2c(C(=O)N[C@H]3CC[C@@H]3OC)cnn12 [I-886]	< 0.1 µM	> 0.3 µM	
CNc1cc(Nc2cc(F)cn(-c3cc(C)n(C)n3)c2=O)nc2c(C(=O)N[C@H]3C[C@H]3F)cnn12 [I-385]	< 0.1 µM	> 2.5 µM	
CNc1cc(Nc2cc(F)cn(-c3cnn(C)c3)c2=O)nc2c(C(=O)NC3CC3)cnn12 [I-380]	< 0.1 µM	> 12.5 µM	
CNc1cc(Nc2cccn(-c3cnc(C(C)(C)O)cn3)c2=O)nc2c(C(=O)NC3CCC3)cnn12 [I-95]	< 0.1 µM		> 50 µM
CNc1cc(-c2cn(CCN3CCN(C)CC3)c3ncccc23)nc2c(C(=O)N[C@H]3CC[C@@H]3OC)cnn12 [I-952]	0.1 to 0.5 µM	> 2.5 µM	
CNc1cc(Nc2cccc(N3CCOCC3)n2)nc2c(C(=O)N[C@H]3C[C@H]3F)cnn12 [I-590]	< 0.1 µM	> 12.5 µM	
CCn1cc(Cl)cc(Nc2cc(NC)n3ncc(C(N)=O)c3n2)c1=O [I-35]	< 0.1 µM	> 0.3 µM	
CNc1cc(Nc2cccn(-c3ccc(OC)cn3)c2=O)nc2c(C(=O)NC3CCC3)cnn12 [I-266]	< 0.1 µM	> 12.5 µM	
CNc1cc(Nc2cc(Cl)cn(C3CCOCC3)c2=O)nc2c(C(=O)N[C@H]3CC[C@@H]3O)cnn12 [I-712]	< 0.1 µM	> 12.5 µM	
CNc1cc(Nc2cc(C)cn(-c3cnn(C)c3)c2=O)nc2c(C(=O)NC3CCC3)cnn12 [I-234]	< 0.1 µM	> 2.5 µM	
CNc1cc(Nc2cccn(-c3ccc(C4CC4)nn3)c2=O)nc2c(C(=O)NC3CCC3)cnn12 [I-240]	< 0.1 µM	> 2.5 µM	
CNc1cc(-c2cn(C(C)C)c3ncccc23)nc2c(C(=O)N[C@@H]3COC[C@@H]3O)cnn12 [I-842, N-((3R,4R)-4-hydroxytetrahydrofuran-3-yl)-5-(1-isopropyl-1H-pyrrolo[2,3-b]pyridin-3-yl)-7-(methylamino)pyrazolo[1,5-a]pyrimidine-3-carboxamide]	< 0.1 µM	> 50 µM	
CNc1cc(Nc2cccn(-c3ccc(C4CC4)nn3)c2=O)nc2c(C(=O)N[C@H]3C[C@H]3F)cnn12 [I-165]	< 0.1 µM	> 2.5 µM	
CNc1cc(Nc2cccn([C@H]3CC[C@H](OC)CC3)c2=O)nc2c(C(=O)NC[C@H](C)CO)cnn12 [I-829]	< 0.1 µM	> 50 µM	
CNc1cc(Nc2cccn(-c3ccc(C)nn3)c2=O)nc2c(C(=O)NC3CCC3)cnn12 [I-141]	< 0.1 µM	> 50 µM	
CNc1cc(Nc2cc(Cl)cn(C3CCCN(C)C3)c2=O)nc2c(C(=O)NC3CC3)cnn12 (stereo not shown) [I-740]	< 0.1 µM	> 2.5 µM	
CNc1cc(Nc2cccn(-c3ncccc3F)c2=O)nc2c(C(=O)NCC(C)(C)CO)cnn12 [I-510]	< 0.1 µM	> 50 µM	
CNc1cc(Nc2cc(Cl)cn([C@@H]3CCCOC3)c2=O)nc2c(C(=O)N[C@@H]3C[C@@H]3F)cnn12 [I-773]	< 0.1 µM	> 12.5 µM	
CNc1cc(Nc2cc(Cl)cn(-c3ccn(C)n3)c2=O)nc2c(C(=O)N[C@H]3C[C@H]3F)cnn12 [I-309]	< 0.1 µM	> 12.5 µM	
CNC(=O)c1nscc1Nc1cc(NC)n2ncc(C(=O)N[C@@H]3C[C@@H]3F)c2n1 [I-914]	< 0.1 µM	> 50 µM	
CNc1cc(Nc2cccn([C@H]3CC[C@](C)(OC)CC3)c2=O)nc2c(C(=O)N[C@H]3C[C@H]3F)cnn12 [I-362]	< 0.1 µM	> 50 µM	

Further lines, with some results ahead:

IC50 [1]	IC50 [2, 3]	SMILES	IC50 ([2]; read-out: PBMC_GMCSF_pSTAT5 IC50)
< 0.1 µM	> 50 µM	CNc1cc(Nc2cc(F)cnc2OC2CC2)nc2c(C(=O)N[C@H]3C[C@H]3F)cnn12 [I-275]	
< 0.1 µM	> 2.5 µM	CNc1cc(Nc2cccn(-c3cc(C)on3)c2=O)nc2c(C(=O)NC3CC3)cnn12 [I-162]	
< 0.1 µM	> 50 µM	CNc1cc(Nc2cccnc2OC2CC2)nc2c(C(=O)NC3CC3)cnn12 [I-215, 5-((2-cyclopropoxypyridin-3-yl)amino)-N-cyclopropyl-7-(methylamino) pyrazolo[1,5-a]pyrimidine-3-carboxamide]	
< 0.1 µM	> 12.5 µM	CNc1cc(Nc2cc(F)ccc2F)nc2c(C(=O)NC3CC3)cnn12 [I-3]	
< 0.1 µM	> 12.5 µM	[2H]C([2H])([2H])Oc1ncccc1Nc1cc(NC)n2ncc(C(=O)N[C@@H]3CC[C@H]3O)c2n1 [I-410]	
< 0.1 µM	> 12.5 µM	CNc1cc(Nc2cccn(-c3ccccn3)c2=O)nc2c(C(=O)NC3CC3)cnn12 [I-680]	
< 0.1 µM	> 12.5 µM	CNc1cc(Nc2cccnc2OC2CC2)nc2c(C(=O)NC3CCC3)cnn12 [I-216]	
< 0.1 µM	> 50 µM	CNC(=O)c1occc1Nc1cc(NC)n2ncc(C(=O)NC3CC3)c2n1 [I-887]	
0.1 to 0.5 µM	> 50 µM	CNc1cc(Nc2cccnc2OC)nc2c(C(=O)NO)cnn12 [I-710, N-hydroxy-5-((2-methoxypyridin-3-yl)amino)-7-(methylamino)pyrazolo[1,5-a]pyrimidine-3-carboxamide]	
< 0.1 µM	> 50 µM	CNc1cc(Nc2cccn(-c3cnn(C)c3)c2=O)nc2c(C(=O)N[C@H]3C[C@H]3F)cnn12 [I-296]	
< 0.1 µM	> 2.5 µM	CNc1cc(Nc2cccn([C@H]3CCCOC3)c2=O)nc2c(C(=O)N[C@@H]3CC[C@H]3O)cnn12 [I-725]	
< 0.1 µM	> 50 µM	CNc1cc(Nc2cccn(-c3cnn(C)c3)c2=O)nc2c(C(=O)NC3CC3)cnn12 [I-295]	
< 0.1 µM	> 2.5 µM	CNc1cc(Nc2cccn([C@H]3CC[C@H](OC)CC3)c2=O)nc2c(C(=O)N[C@@H]3CC[C@@H]3O)cnn12 [I-560]	
< 0.1 µM	> 50 µM	CNc1cc(Nc2cccnc2OC)nc2c(C(=O)N[C@@H]3CCC[C@H]3O)cnn12 [I-423, N-((1R,2R)-2-hydroxycyclopentyl)-5-((2-methoxypyridin-3-yl)amino)-7-(methylamino)pyrazolo[1,5-a]pyrimidine-3-carboxamide]	
< 0.1 µM	> 50 µM	CNc1cc(Nc2cccn(-c3cc(C)n(C)n3)c2=O)nc2c(C(=O)NC3CC3)cnn12 [I-138]	
< 0.1 µM	> 50 µM	[2H]C([2H])([2H])Oc1ncc(C)cc1Nc1cc(NC)n2ncc(C(=O)NC3CC3)c2n1 [I-258]	
